Measurements: paper PMC10799935, “Discovery of a peripheral 5HT2A antagonist as a clinical candidate for metabolic dysfunction-associated steatohepatitis” (Nature Communications, 2024)
“And” between values parts separate entries of the source, which are not always exact repeats. Identical values can stand only once. Like-named read-outs stand apart in the source and are kept apart here.

Columns and labels:
5HT1B (h) = target: T1, 5HT1B (h) (Homo sapiens, UniProt P28222); assay: 5HT subtype antagonism assay (Eurofins Cerep): 5HT1B; assay type: cell-based; details: concentration not given
T1 construct: host or cells: Hela cells
T1 sequence (P28222 whole entry): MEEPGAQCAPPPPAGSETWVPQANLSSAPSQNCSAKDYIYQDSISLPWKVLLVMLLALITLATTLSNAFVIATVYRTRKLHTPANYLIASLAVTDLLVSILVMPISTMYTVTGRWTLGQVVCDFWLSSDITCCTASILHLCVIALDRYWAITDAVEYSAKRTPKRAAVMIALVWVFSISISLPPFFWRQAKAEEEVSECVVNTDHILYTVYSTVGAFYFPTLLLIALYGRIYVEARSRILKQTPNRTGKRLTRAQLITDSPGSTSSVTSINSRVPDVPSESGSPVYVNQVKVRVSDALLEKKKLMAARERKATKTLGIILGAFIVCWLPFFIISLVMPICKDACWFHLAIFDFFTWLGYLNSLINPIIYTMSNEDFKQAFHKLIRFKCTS
Protocol: The derivatives were evaluated at a concentration of 1 μM for their antagonist activity on the 5HT2A receptor (Tables 1–3)[33],[34]. Human 5HT2A stably transfected HEK293 cells (a type of cell derived from kidney embryos)[20] were seeded in a 96-well plate (Costar; 3603) at a density of 9 × 10^4 in 100 μL of minimum essential medium (Welgene; LM007-86) containing 10% dialyzed fetal bovine serum (Gibco; 30067–334) and 1% penicillin/streptomycin (Gibco; 15140-122) and kept in a 37 °C incubator for 24 h. The cells were stained with 100 μL of cytosolic calcium dye using the FLIPR calcium 6 assay solution (Molecular devices, #R8190) supplemented with 2.5 mM probenecid (Sigma; P8761) and incubated for 1 h at 37 °C. After 1 h, the designated amount of the compound was treated in each well and incubated for another 1 h at 37 °C. Then, the cells were loaded in a Flexstation 3 microplate reader (Molecular Devices; FlexStaion) and 50 μL of 5 μM 5HT (serotonin hydrochloride, Sigma; H9523) was injected from a source plate (Nunc 96-well polystyrene conical bottom MicroWell Plate, Thermo; 249662) and the fluorescence intensity (Ex/Em-485nm/ 525 nm) was measured. […]
Antagonism assay Source Stimulus Incubation Measured Detection Method […]

[1] = tested on: lipogenesis-related genes; assay: DIO mice: qRT-PCR of lipogenesis-related genes in liver; assay type: in vivo, mouse; details: for Fasn gene expression, Predicted (LS) mean diff. / Htr2a gene expression, Predicted (LS) mean diff. / Pparγ gene expression, Predicted (LS) mean diff. / Srebp1c gene expression, Predicted (LS) mean diff.: Tukey's multiple comparisons test; for Fasn gene expression, Predicted (LS) mean / Htr2a gene expression, Predicted (LS) mean / Pparγ gene expression, Predicted (LS) mean / Srebp1c gene expression, Predicted (LS) mean: vehicle = 1
Protocol: Total RNA extractions from harvested tissues were performed using TRIzol according to the manufacturer’s protocol. After TURBO DNase (Invitrogen) treatment, 2 μg of total RNA was used to generate complementary DNA with a High-Capacity cDNA Reverse Transcription Kit (Thermo Fisher Scientific). Quantitative RT-PCR was performed with Fast SYBR Green Master Mix (Thermo Fisher Scientific) and a Viia 7 Real-time PCR System (Thermo Fisher Scientific) according to the manufacturer’s instructions. Gene expression was relatively quantified based on the delta-delta Ct (threshold cycle) method with the beta-actin gene as a reference gene. The sequence of primers can be found in the Supporting Information (Supplementary Table 2).

α-SMA = assay: CDAHFD mice: liver α-SMA RNA expression (qRT-PCR); assay type: in vivo, mouse; details: for Relative liver α-SMA expressions in mice, measured using quantitative RT-PCR: individual mice and Average
Description: C57BL/6 J male mice were purchased from the Japan SLC. Inc (Hamamatsu, Japan). Mice (5 weeks old) were fed Teklad Certitied Irradiated Global 18% protein rodent diet purchased from Dooyeol Biotech Co. Ltd (Seoul, South Korea) during the acclimation period. The liver fibrosis/inflammation-induced groups were CDAHFD-fed (A06071302, Research diet). […]. […] All animal experiments complied with the relevant ethical regulations.
The frozen liver tissue was homogenized and put into QiAzol (Qiagen, Hilden) to isolate RNA, and 4 μg of RNA was synthesized into cDNA using the RevertAid First Strand cDNA synthesis kit (Thermo Fischer, Waltham). The expressions of mouse collagen I (Forward: 5’-TGTGTTCCCTACTCAGCCGTG-3’. Reverse: 5’-CATCGGTCATGCTCTCTCCAA-3’), mouse α-SMA (Forward:5’-TCCTGACGCTGAAGTATCCGAT-3’, Reverse: 5’-GGCCACACAAAGCTCGTTATAG-3’) and mouse 36B4 (Forward: 5’-ACCTCCTTCTTCCAGGCTTT-3’, Reverse: 5’-CTCCAGTCTTTATCAGCTGC-3’) as house-keeping gene were measured using ViiA 7 Real-time PCR system (Thermo Fischer scientific).

[2] = 3weeks
in vitro = details: human, plasma
CYP2D6 = CYP2D6 (Homo sapiens, UniProt P10635); assay: in vitro
Sequence of CYP2D6 (P10635 whole entry): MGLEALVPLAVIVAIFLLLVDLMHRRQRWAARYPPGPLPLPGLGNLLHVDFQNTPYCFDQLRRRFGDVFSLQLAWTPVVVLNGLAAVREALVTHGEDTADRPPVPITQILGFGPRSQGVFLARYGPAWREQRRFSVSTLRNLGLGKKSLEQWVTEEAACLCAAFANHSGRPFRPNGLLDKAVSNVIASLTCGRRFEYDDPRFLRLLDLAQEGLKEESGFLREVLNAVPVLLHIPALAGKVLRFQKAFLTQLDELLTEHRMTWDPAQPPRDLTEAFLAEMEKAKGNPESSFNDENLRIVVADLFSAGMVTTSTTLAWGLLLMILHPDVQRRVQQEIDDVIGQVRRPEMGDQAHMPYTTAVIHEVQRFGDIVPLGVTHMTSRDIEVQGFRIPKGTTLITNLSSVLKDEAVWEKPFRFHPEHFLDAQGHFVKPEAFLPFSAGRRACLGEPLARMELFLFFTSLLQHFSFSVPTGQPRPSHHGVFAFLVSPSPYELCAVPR

CYP3A4 = CYP3A4 (Homo sapiens, UniProt P08684); assay: in vitro
Sequence of CYP3A4 (P08684 whole entry): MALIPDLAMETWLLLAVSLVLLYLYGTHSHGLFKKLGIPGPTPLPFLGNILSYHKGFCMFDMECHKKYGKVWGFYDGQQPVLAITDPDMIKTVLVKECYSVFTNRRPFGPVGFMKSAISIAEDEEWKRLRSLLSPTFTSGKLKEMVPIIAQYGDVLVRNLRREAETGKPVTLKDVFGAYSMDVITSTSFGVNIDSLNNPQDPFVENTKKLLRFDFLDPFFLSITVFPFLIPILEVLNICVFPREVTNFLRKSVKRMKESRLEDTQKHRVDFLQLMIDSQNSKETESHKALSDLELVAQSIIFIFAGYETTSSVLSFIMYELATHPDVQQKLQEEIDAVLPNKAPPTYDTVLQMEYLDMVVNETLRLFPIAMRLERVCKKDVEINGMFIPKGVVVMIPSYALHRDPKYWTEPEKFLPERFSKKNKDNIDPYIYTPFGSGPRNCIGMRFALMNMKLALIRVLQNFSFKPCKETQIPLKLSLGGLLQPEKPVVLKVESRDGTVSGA

SMILES: Cc1nc2n(c(=O)c1CCN1CCC(=C3c4ccc(Cl)cc4CCc4cccnc43)CC1)CCCC2O (stereo not shown) [Compound 11c]
- Selectivity 1B: % inhibition (5HT1B (h)): 16%
- Fasn gene expression, Predicted (LS) mean diff. ([1]; 11c 5mpk vs. 11c 10mpk): 0.1848
- Htr2a gene expression, Predicted (LS) mean diff. ([1]; 11c 5mpk vs. 11c 10mpk): 0.09643
- Pparγ gene expression, Predicted (LS) mean diff. ([1]; 11c 5mpk vs. 11c 10mpk): -0.1385
- Srebp1c gene expression, Predicted (LS) mean diff. ([1]; 11c 5mpk vs. 11c 10mpk): 0.2716
- Fasn gene expression, Predicted (LS) mean ([1]; 11c 5mpk): 0.7446
- Htr2a gene expression, Predicted (LS) mean ([1]; 11c 5mpk): 0.5102
- Pparγ gene expression, Predicted (LS) mean ([1]; 11c 5mpk): 0.8935
- Srebp1c gene expression, Predicted (LS) mean ([1]; 11c 5mpk): 0.7676
- Fasn gene expression, Predicted (LS) mean ([1]; 11c 10mpk): 0.5598
- Htr2a gene expression, Predicted (LS) mean ([1]; 11c 10mpk): 0.4138
- Pparγ gene expression, Predicted (LS) mean ([1]; 11c 10mpk): 1.032
- Srebp1c gene expression, Predicted (LS) mean ([1]; 11c 10mpk): 0.496
- expression of Fasn ([1]; DIO mice, 10mpk): decreased
- expression of Srebp1c ([1]; DIO mice, 10mpk): reduced
- expression of lipogenesis-related genes ([1]; DIO mice, liver, vs vehicle): reduced
- Fasn gene expression, Predicted (LS) mean diff. ([1]; Vehicle vs. 11c 5mpk): 0.2554
- Htr2a gene expression, Predicted (LS) mean diff. ([1]; Vehicle vs. 11c 5mpk): 0.4898
- Pparγ gene expression, Predicted (LS) mean diff. ([1]; Vehicle vs. 11c 5mpk): 0.1065
- Srebp1c gene expression, Predicted (LS) mean diff. ([1]; Vehicle vs. 11c 5mpk): 0.2324
- Fasn gene expression, Predicted (LS) mean diff. ([1]; Vehicle vs. 11c 10mpk): 0.4402
- Htr2a gene expression, Predicted (LS) mean diff. ([1]; Vehicle vs. 11c 10mpk): 0.5862
- Pparγ gene expression, Predicted (LS) mean diff. ([1]; Vehicle vs. 11c 10mpk): -0.03198
- Srebp1c gene expression, Predicted (LS) mean diff. ([1]; Vehicle vs. 11c 10mpk): 0.504
- Relative liver α-SMA expressions in mice, measured using quantitative RT-PCR (α-SMA; CDAHFD+11c 5 mpk): 2.564 and 0.488 and 1.651 and 1.165 and 1.498
- Relative liver α-SMA expressions in mice, measured using quantitative RT-PCR (α-SMA; CDAHFD+11c 5 mpk, mean): 1.473
- Relative liver α-SMA expressions in mice, measured using quantitative RT-PCR (α-SMA; CDAHFD+11c 10mpk): 2.015 and 1.845 and 1.808 and 2.373 and 1.519
- Relative liver α-SMA expressions in mice, measured using quantitative RT-PCR (α-SMA; CDAHFD+11c 10mpk, mean): 1.912
- mRNA expression of α-SMA in liver tissue (α-SMA; CDAHFD-fed 11c vs CDAHFD-fed vehicle group): significantly decreased
- Chemical stability ([2]; 25 °C): 99.8%
- Chemical stability ([2]; 60 °C): 99.6%
- remaining at 4 h (in vitro): > 98.6%
- inhibition at 10 µM (CYP2D6): 26.3%
- inhibition at 10 µM (CYP3A4): 17.6%
